Reference: US9102701B2, “17-hydroxy-17-pentafluoroethyl-estra-4,9(10)-diene-11-ethynylphenyl derivatives, methods for the production thereof and use thereof for treating diseases” (Bayer Intellectual Property GmbH, priority 2009, dated 2015)
Where two headings read alike, the source gives them in different places.

Assays:
[1] = biological target: T1, human progesterone receptor A (Homo sapiens, UniProt P06401); experiment: Progesterone receptor-antagonistic action in stably transfected SK-N-MC cells, PR-A, MMTV-LUC reporter; type: cell-based
T1 construct: expressed in transfected cells; host or cells: SK-N-MC human neuroblastoma cells, stably transfected with pRChPR-A-neo and pMMTV-LUC
T1 sequence (P06401 1-769 isoform P06401-2): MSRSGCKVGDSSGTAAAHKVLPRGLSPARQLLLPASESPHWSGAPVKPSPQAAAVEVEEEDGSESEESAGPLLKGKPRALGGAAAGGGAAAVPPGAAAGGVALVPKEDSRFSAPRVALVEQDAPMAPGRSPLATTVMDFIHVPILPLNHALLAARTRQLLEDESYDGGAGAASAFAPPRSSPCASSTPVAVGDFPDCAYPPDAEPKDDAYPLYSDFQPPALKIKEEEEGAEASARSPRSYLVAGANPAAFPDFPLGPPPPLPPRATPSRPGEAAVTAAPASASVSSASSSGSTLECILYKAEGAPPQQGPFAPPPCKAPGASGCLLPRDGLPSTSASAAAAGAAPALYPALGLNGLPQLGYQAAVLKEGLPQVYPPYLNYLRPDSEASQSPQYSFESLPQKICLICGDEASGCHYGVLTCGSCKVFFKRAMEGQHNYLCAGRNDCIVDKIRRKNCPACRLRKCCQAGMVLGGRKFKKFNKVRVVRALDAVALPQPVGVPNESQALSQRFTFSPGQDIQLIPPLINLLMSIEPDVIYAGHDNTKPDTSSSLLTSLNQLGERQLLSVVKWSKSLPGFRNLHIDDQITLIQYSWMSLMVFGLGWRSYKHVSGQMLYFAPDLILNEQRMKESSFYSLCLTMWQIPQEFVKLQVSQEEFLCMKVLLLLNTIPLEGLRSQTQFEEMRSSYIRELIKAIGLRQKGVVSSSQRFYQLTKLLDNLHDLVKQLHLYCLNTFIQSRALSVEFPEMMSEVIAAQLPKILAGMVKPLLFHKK
Method: (§1) Determination of Progesterone Receptor-Antagonistic Action in Stable Transfectants of Human Neuroblastoma Cells (SK-N-MC Cells) with the Human Progesterone a or Progesterone B Receptor and an MN-LUC Reporter Construct
(§2) SK-N-MC cells (human neuroblastoma cells) which have been stably transfected with plasmids expressing the human progesterone receptor B (pRChPR-B-neo) or the human progesterone receptor A (pRChPR-A-neo) and a reporter construct (pMMTV-LUC) were incubated for 24 hours either in the absence (negative control) or in the presence of ascending amounts of the particular test compound (0.01 nmol/l, 0.1 nmol/l, 1 nmol/l, 10 nmol/l, 100 nmol/l and […]), in order to determine the agonistic efficacy. As a positive control of the reporter gene induction, the cells were treated with the synthetic gestagen promegestone (0.01 nmol/l, 0.1 nmol/l, 1 nmol/l, 10 nmol/l, 100 nmol/l and […]). To determine the antagonistic activity, the cells were treated with 0.1 nmol/l promegestone and additionally with ascending amounts of the particular test compound (0.01 nmol/l, 0.1 nmol/l, 1 nmol/l, 10 nmol/l, 100 nmol/l and […]). The activity of the reporter gene LUC (LUC=luciferase) was determined in the cell lysates and measured as RLU (relative light units). All measurements are reported as % efficacy and as EC50 and IC50 concentrations.

[2] = biological target: T2, human progesterone receptor B (Homo sapiens, UniProt P06401); experiment: Progesterone receptor-antagonistic action in stably transfected SK-N-MC cells, PR-B, MMTV-LUC reporter; type: cell-based
T2 construct: expressed in transfected cells; host or cells: SK-N-MC human neuroblastoma cells, stably transfected with pRChPR-B-neo and pMMTV-LUC
T2 sequence (P06401 1-933): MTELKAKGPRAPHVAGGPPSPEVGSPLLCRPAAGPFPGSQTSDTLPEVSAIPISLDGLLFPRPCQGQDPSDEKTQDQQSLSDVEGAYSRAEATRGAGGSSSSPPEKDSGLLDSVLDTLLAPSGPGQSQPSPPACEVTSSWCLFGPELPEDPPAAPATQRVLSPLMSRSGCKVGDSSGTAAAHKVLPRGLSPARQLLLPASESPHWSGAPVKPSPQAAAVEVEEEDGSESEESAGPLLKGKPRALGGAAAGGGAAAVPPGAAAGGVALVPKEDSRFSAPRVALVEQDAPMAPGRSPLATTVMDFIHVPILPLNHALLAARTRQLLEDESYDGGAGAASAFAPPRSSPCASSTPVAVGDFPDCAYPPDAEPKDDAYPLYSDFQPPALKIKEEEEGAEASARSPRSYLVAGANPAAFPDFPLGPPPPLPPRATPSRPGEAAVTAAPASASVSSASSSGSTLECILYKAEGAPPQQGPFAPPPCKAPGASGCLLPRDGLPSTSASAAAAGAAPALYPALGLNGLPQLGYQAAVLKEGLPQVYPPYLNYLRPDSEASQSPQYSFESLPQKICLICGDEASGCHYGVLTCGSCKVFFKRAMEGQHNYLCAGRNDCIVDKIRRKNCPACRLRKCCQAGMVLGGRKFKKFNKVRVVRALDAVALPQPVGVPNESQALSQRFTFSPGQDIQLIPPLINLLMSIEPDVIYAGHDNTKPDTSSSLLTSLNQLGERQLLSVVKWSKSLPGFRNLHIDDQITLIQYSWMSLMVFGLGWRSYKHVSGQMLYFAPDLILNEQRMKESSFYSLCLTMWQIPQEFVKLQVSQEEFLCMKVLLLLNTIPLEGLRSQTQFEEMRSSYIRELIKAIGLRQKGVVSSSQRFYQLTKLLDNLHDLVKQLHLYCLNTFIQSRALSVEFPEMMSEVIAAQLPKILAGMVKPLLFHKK
Method: as §1, §2

Row | IC50 ([1]; read-out: IC50 PR-A) [nM] | IC50 ([2]; read-out: IC50 PR-B) [nM] | Compound | IC50 [1] [nM] | IC50 [2] [nM]
1 | 1 | 2 | COC(=O)c1cccc(C=CC#Cc2ccc([C@H]3C[C@@]4(C)C(CC[C@@]4(O)C(F)(F)C(F)(F)F)C4CCC5=CC(=O)CCC5=C43)cc2)c1 (mixture of isomers) [Example 12, 3-{(E/Z)-4-[4-((8S,11R,13S,14S,17S)-17-hydroxy-13-methyl-3-oxo-17-pentafluoroethyl-2,3,6,7,8,11,12,13,14,15,16,17-dodecahydro-1H-cyclopenta[a]phenanthren-1′-yl)phenyl]but-1-en-3-ynyl}benzoic acid methyl ester] |  | 
2 | 0.08 | 0.08 | CC(C)CO/N=C/C#Cc1ccc([C@H]2C[C@@]3(C)C(CC[C@@]3(O)C(F)(F)C(F)(F)F)C3CCC4=CC(=O)CCC4=C32)cc1 (mixture of isomers) [Example 26, (E/Z)-[4-((8S,11R,13S,14S,17S)-17-hydroxy-13-methyl-3-oxo-17-pentafluoroethyl-2,3,6,7,8,11,12,13,14,15,16,17-dodecahydro-1H-cyclopenta[a]phenanthren-1′-yl)phenyl]propynal O-isobutyl oxime] |  | 
3 | 0.97 | 2 | C[C@]12C[C@H](c3ccc(C#CC=NOCc4ccc(Cl)c(Cl)c4)cc3)C3=C4CCC(=O)C=C4CCC3C1CC[C@@]2(O)C(F)(F)C(F)(F)F (mixture of isomers) [Example 27, (E/Z)-[4-((8S,11R,13S,14S,17S)-17-hydroxy-13-methyl-3-oxo-17-pentafluoroethyl-2,3,6,7,8,11,12,13,14,15,16,17-dodecahydro-1H-cyclopenta[a]phenanthren-1′-yl)phenyl]propynal O-(3,4-dichlorobenzyl) oxime] |  | 
4 |  |  | COC(=O)C#Cc1ccc([C@H]2C[C@@]3(C)C(CC[C@@]3(O)C(F)(F)C(F)(F)F)C3CCC4=CC(=O)CCC4=C32)cc1 (stereo partly drawn) [Example 3, [4-((8S,11R,13S,14S,17S)-17-hydroxy-13-methyl-3-oxo-17-pentafluoroethyl-2,3,6,7,8,11,12,13,14,15,16,17-dodecahydro-1H-cyclopenta[a]phenanthren-1′-yl)phenyl]propynoic acid methyl ester] | 1.8 | 1.2
5 | 13 | 12 | CCOC(=O)/C=C/C#Cc1ccc([C@H]2C[C@@]3(C)C(CC[C@@]3(O)C(F)(F)C(F)(F)F)C3CCC4=CC(=O)CCC4=C32)cc1 (stereo partly drawn) [Example 6, (E)-5-[4-((8S,11R,13S,14S,17S)-17-hydroxy-13-methyl-3-oxo-17-pentafluoroethyl-2,3,6,7,8,11,12,13,14,15,16,17-dodecahydro-1H-cyclopenta[a]phenanthren-1′-yl)phenyl]pent-2-en-4-ynoic acid ethyl ester] |  | 
6 | 0.8 | 0.9 | CCOC(=O)C=CC=CC#Cc1ccc([C@H]2C[C@@]3(C)C(CC[C@@]3(O)C(F)(F)C(F)(F)F)C3CCC4=CC(=O)CCC4=C32)cc1 (stereo partly drawn) [Example 7, 7-(2E/Z,4E/Z)-[4-((8S,11R,13S,14S,17S)-17-hydroxy-13-methyl-3-oxo-17-pentafluoroethyl-2,3,6,7,8,11,12,13,14,15,16,17-dodecahydro-1H-cyclopenta[a]phenanthren-1′-yl)phenyl]hepta-2,4-dien-6-ynoic acid ethyl ester] |  | 
7 | 0.32 | 0.41 | CC(C)(C)OC(=O)COCC#Cc1ccc([C@H]2C[C@@]3(C)[C@@H](CC[C@@]3(O)C(F)(F)C(F)(F)F)[C@@H]3CCC4=CC(=O)CCC4=C32)cc1 [Example 8, {3-[4-((8S,11R,13S,14S,17S)-17-hydroxy-13-methyl-3-oxo-17-pentafluoroethyl-2,3,6,7,8,11,12,13,14,15,16,17-dodecahydro-1H-cyclopenta[a]phenanthren-11-yl)phenyl]prop-2-ynyloxy}acetic acid tert-butyl ester] |  | 
8 | 8.1 | 10 | COC(=O)COCC#Cc1ccc([C@H]2C[C@@]3(C)[C@@H](CC[C@@]3(O)C(F)(F)C(F)(F)F)[C@@H]3CCC4=CC(=O)CCC4=C32)cc1 [Example 9, {3-[4-((8S,11R,13S,14S,17S)-17-hydroxy-13-methyl-3-oxo-17-pentafluoroethyl-2,3,6,7,8,11,12,13,14,15,16,17-dodecahydro-1H-cyclopenta[a]phenanthren-11-yl)phenyl]prop-2-ynyloxy}acetic acid methyl ester] |  | 
9 | 9 | 10 | C[C@]12C[C@H](c3ccc(C#CCOCC(=O)O)cc3)C3=C4CCC(=O)C=C4CCC3C1CC[C@@]2(O)C(F)(F)C(F)(F)F (stereo partly drawn) [Example 10, {3-[4-((8S,11R,13S,14S,17S)-17-hydroxy-13-methyl-3-oxo-17-pentafluoroethyl-2,3,6,7,8,11,12,13,14,15,16,17-dodecahydro-1H-cyclopenta[a]phenanthren-1′-yl)phenyl]prop-2-ynyloxy}acetic acid] |  | 
10 | 0.1 | 0.1 | C[C@]12C[C@H](c3ccc(C#CCOCC#N)cc3)C3=C4CCC(=O)C=C4CCC3C1CC[C@@]2(O)C(F)(F)C(F)(F)F (stereo partly drawn) [Example 14, {3-[4-((8S,11R,13S,14S,17S)-17-hydroxy-13-methyl-3-oxo-17-pentafluoroethyl-2,3,6,7,8,11,12,13,14,15,16,17-dodecahydro-1H-cyclopenta[a]phenanthren-1′-yl)phenyl]prop-2-ynyloxy}acetonitrile] |  | 
11 | 0.7 | 1 | COC(=O)c1ccc(C#Cc2ccc([C@H]3C[C@@]4(C)[C@@H](CC[C@@]4(O)C(F)(F)C(F)(F)F)[C@@H]4CCC5=CC(=O)CCC5=C43)cc2)cc1 [Example 15, 4-[4-((8S,11R,13S,14S,17S)-17-hydroxy-13-methyl-3-oxo-17-pentafluoroethyl-2,3,6,7,8,11,12,13,14,15,16,17-dodecahydro-1H-cyclopenta[a]phenanthren-11-yl)phenylethynyl]benzoic acid methyl ester] |  | 
12 | 8 | 5 | C[C@]12C[C@H](c3ccc(C#CCOCc4nnn[nH]4)cc3)C3=C4CCC(=O)C=C4CC[C@H]3[C@@H]1CC[C@@]2(O)C(F)(F)C(F)(F)F [Example 18, (8S,11R,13S,14S,17S)-17-hydroxy-13-methyl-17-pentafluoroethyl-11-{4-[3-(1H-tetrazol-5-ylmethoxy)prop-1-yn-1-yl]phenyl}-1,2,6,7,8,11,12,13,14,15,16,17-dodecahydrocyclopenta[a]phenanthren-3-one] |  | 
